A short description of this data set: method code SF-FL/RC, from DOI: 10.1007/bf00499868, PMID: 43479. The conditions noted are these: for logD: pH 7.4.

This passage reports logP and logD results from the SangsterLogP compilation.

As a reminder, the logP is the decadic logarithm of the partition coefficient of the neutral form, usually between octanol and water. Low values mean lower lipophilicity, high ones higher lipophilicity. As a reminder, the logD is lipophilicity at a set pH, counting ionised and neutral species. Lower therefore signals lower lipophilicity.

Regarding `NCC(O)c1ccc(O)cc1` (stereo unspecified), the lipophilicity (logP) is -0.75.
In turn, `COc1cc(CCO)ccc1O` gave a logD of 0.47.
Still for that read-out and setting: to `OCC(O)c1ccc(O)c(O)c1` (stereo unspecified) belongs -1.01.
Regarding `C[C@H](N)[C@H](O)c1cccc(O)c1`, the log partition coefficient (logP) is -0.27.
The same measure, in the same setting: the value for `CNCC(O)c1ccc(O)cc1` (stereo unspecified) was -0.45.
Same read-out and setting: the value for `CNC[C@H](O)c1ccc(O)c(O)c1` was -1.37.
On the same count and under the same terms, to `COc1cc(C(O)CN)ccc1O` (stereo unspecified) belongs -1.05; to `COc1cc(CCN)ccc1O`, -0.08.
`CC(N)C(O)c1ccc(O)c(O)c1` (stereo unspecified) yielded a lipophilicity (logP) of -1.43.
`CNCC(O)c1ccc(O)c(OC)c1` (stereo unspecified) had a logP of -0.64.
`COc1cc(C(O)CO)ccc1O` (stereo unspecified) returned a logD of -0.58.
